Assay results: patent US20210180095A1 (SHELL OIL COMPANY, priority 2017, published 2021)

How the values were obtained:
[1] = biological target: T1, P. thermopropionicum HmfF (Pelotomaculum thermopropionicum, UniProt A5D4Z9); settings: substrate specificity
Method: Subsequently, HmfF was purified and assayed under anaerobic conditions. […] All subsequent assays were performed at 50° C.

[2] = system: P. thermopropionicum HmfF H297F variant; experiment: Reconstituted holo-PtHmfF decarboxylation assay (FIG. 7), H297F variant; assay type: biochemical, Pelotomaculum thermopropionicum; settings: 1 mM substrate
Method: (§1) Mutagenesis primers were designed using the QuikChange® Primer Design Program (http://www.genomics.agilent.com/primerDesignProgram.jsp). PCR was performed using Phusion polymerase (NEB). Template was removed by DpnI (NEB) digest and the PCR product transformed into E. coli NEB5-alpha. Once the presence of the desired mutation was confirmed by DNA sequencing, the plasmid was transformed into E. coli BL21(DE3). The three variants transformed into E. coli BL21(DE3) includes one with a mutation of H297N, a second with H297F, and a third of R305Q.
(§2) Protein was expressed in BL21(DE3) grown at 37° C./180 rpm in LB broth supplemented with 50 μg/ml ampicillin At mid-log phase cells were induced with 0.25 mM IPTG and grown overnight at 15° C./180 rpm and then harvested by centrifugation (4° C., 7000 g for 10 minutes). Cell pellets were resuspended in buffer A (200 mM KCl, 1 mM MnCl2, 50 mM Tris pH 7.5) supplemented with DNase, RNase, lysozyme (Sigma) and Complete EDTA-free protease inhibitor cocktail (Roche). Cells were lysed using a French press at 1500 psi and the lysate incubated at 50° C. for 30 minutes to precipitate host proteins. The lysate was clarified by centrifugation at 125,000 g for 90 minutes. […]

[3] = system: P. thermopropionicum HmfF wild-type (WT); experiment: Reconstituted holo-PtHmfF decarboxylation assay (FIG. 7), wild-type; assay type: biochemical, Pelotomaculum thermopropionicum; settings: 1 mM substrate; for observed kcat (decarboxylation activity): pH6, 50° C., anaerobic
Method: Reconstitution and Assays were performed anaerobically within a 100% N2-atmosphere glove box (Belle Technology, UK).
Holo-PtHmfF (e.g., an enzyme with its cofactors) was obtained by reconstituting single expressed HmfF with reduced prFMN under anaerobic conditions as described previously for the UbiD from E. coli in Marshall, S. A., Fisher, K., Ni Cheallaigh, A., White, M. D., Payne, K. A., Parker, D. A., Rigby, S. E., and Leys, D. (2017) Oxidative Maturation and Structural Characterization of Prenylated FMN Binding by UbiD, a Decarboxylase Involved in Bacterial Ubiquinone Biosynthesis. The Journal of biological chemistry 292, 4623-4637. In general, a reaction consisting of 1 mM FMN, 2 mM DMAP (Sigma), 50 μM Fre reductase and 50 μM UbiX in buffer A was started by the addition of 5 mM NADH. Following incubation, the reaction mixture was filtered through 10 k MWCO centrifugal concentrator to remove UbiX and Fre proteins. The filtrate containing the prFMN product was used to reconstitute anaerobic apo-HmfF (e.g., an enzyme without its cofactors) in a 2:1 molar ratio, with excess cofactor being removed using a PD25 desalting column (GE Healthcare). Use of holo-PtHmfF ensures the activity observed in the enzymatic activity assay below is minimally impacted by the presence or absence of cofactors.
Assays were performed by UV-vis spectroscopy using a Cary 50 Bio spectrophotometer (Varian).

[4] = system: P. thermopropionicum HmfF R305Q variant; experiment: Reconstituted holo-PtHmfF decarboxylation assay (FIG. 7), R305Q variant; assay type: biochemical, Pelotomaculum thermopropionicum; settings: 1 mM substrate
Method: as §1, §2

G. kaustophilus HmfF = experiment: HmfF carboxylation reactions assayed by HPLC; assay type: biochemical, Geobacillus kaustophilus; settings: 50 mM furoic acid, 3 M ammonium bicarbonate, 50° C. overnight
Method: (§3) […] The sample was centrifuged at 16100 g to remove precipitate and […] added to 980 μl 50% v/v H2O/acetonitrile. Sample analysis was performed using an Agilent 1260 Infinity Series HPLC equipped with a UV detector. The stationary phase was a Kinetex […] C18 100A column, 250×4.6 mm The mobile phase was acetonitrile/water (50/50) with 0.1% TFA at a flow rate of 1 ml/min, and unless otherwise stated detection was performed at a wavelength of 265 nm.

[5] = biological target: T1, P. thermopropionicum HmfF; experiment: HmfF carboxylation reactions assayed by HPLC; assay type: biochemical; settings: 50 mM furoic acid, 3 M ammonium bicarbonate, 50° C. overnight
Method: as §3

[6] = Effect of pH, temperature and oxygen on HmfF decarboxylation activity (UV-vis)

Q: For O=C(O)c1ccoc1C(=O)O [2,3-furandicarboxylic acid], which “decarboxylation by purified P. thermopropionicum HmfF” value [1] is on record?
A: no decarboxylation detected

Q: With O=C(O)c1ccc(C(=O)O)s1 [2,5-thiophenedicarboxylic acid] as the molecule, how does the “decarboxylation by purified P. thermopropionicum HmfF” value [1] read?
A: no decarboxylation detected

Q: With O=C(O)c1cccc(C(=O)O)n1 [2,6-pyridinedicarboxylic acid] as the molecule, how does the “decarboxylation by purified P. thermopropionicum HmfF” value [1] read?
A: no decarboxylation detected

Q: For O=C(O)c1ccc(CO)o1 [5-hydroxymethyl-2-furoic acid], which “decarboxylation by purified P. thermopropionicum HmfF” value [1] is on record?
A: no decarboxylation detected

Q: Which “decarboxylation by purified P. thermopropionicum HmfF” value [1] does the source give for O=C(O)c1ccc([N+](=O)[O-])o1 [5-nitro-2-furoic acid] here?
A: no decarboxylation detected

Q: Which results are given for O=C(O)c1ccc(C(=O)O)o1 [FDCA, 2,5-furandicarboxylic acid]?
A: decarboxylation by purified P. thermopropionicum HmfF [1]: capable of decarboxylating; decarboxylation activity [2]: did not exhibit any measurable decarboxylation activity; observed kcat (decarboxylation activity) [3]: greater than 4 kcat/s; decarboxylation activity [4]: did not exhibit any measurable decarboxylation activity

Q: Which decarboxylation activity [2] does the source give for O=C(O)c1ccc(C(=O)O)[nH]1 [PDCA, 2,5-pyrrol-dicarboxylic acid] here?
A: did not exhibit any measurable decarboxylation activity

Q: What about the “decarboxylation activity relative to the activity for FDCA” value [3] of the same molecule?
A: about 2.5%

Q: What about the “observed kcat (decarboxylation activity)” value [3] of the same molecule?
A: less than 0.1 kcat/s

Q: What about the decarboxylation activity [4] of the same molecule?
A: did not exhibit any measurable decarboxylation activity

Q: With O=C(O)c1ccco1 [furoic acid] as the molecule, how does the “decarboxylation by purified P. thermopropionicum HmfF” value [1] read?
A: could not further decarboxylate

Q: And the “carboxylation of furoic acid to FDCA (HPLC peak)” value (G. kaustophilus HmfF)?
A: co-migrates with an FDCA standard

Q: And the “carboxylation of furoic acid to FDCA (HPLC peak)” value [5]?
A: co-migrates with an FDCA standard

Q: Which “decarboxylation by purified P. thermopropionicum HmfF” value [1] does the source give for O=C(O)c1cccc(C(=O)O)c1 [isophthalic acid] here?
A: no decarboxylation detected

Q: With O=C(O)/C=C/C=C/C(=O)O [muconic acid] as the molecule, how does the “decarboxylation by purified P. thermopropionicum HmfF” value [1] read?
A: no decarboxylation detected

Q: With O=C(O)c1ccc(C(=O)O)cc1 [terephthalic acid] as the molecule, how does the “decarboxylation by purified P. thermopropionicum HmfF” value [1] read?
A: no decarboxylation detected

B1: P. thermopropionicum HmfF: HmfF enzyme (2,5-furandicarboxylic acid decarboxylase) of SEQ ID NO:1 from the thermophilic bacterium Pelotomaculum thermopropionicum (protein, listed as Pelotomaculum thermopropionicum)
chain: MSHSLREWLAFLEGKGKLKRVRKEVDPVFEIAALGKQADGICSLLFERVKGYAVPVVTGLAGDRELFAAAMSVPVEGMLEKLAAAVENPVPCRLVSPDGAPVKECIIRENIDLLKMLPIPTHHAGDAGPYITAAILIARDPDSGVRNVSIHRLQVTGPDRLGILILPRHLWHFFGKAERAGRPLEIALAIGVHPAVLLASQATTRLGVDELEIASALLPQPLELVKCETVDVEVPAGAEIVIEGKILPGVREVEGPFGEYPRYYGPAAPRPVVEVTAVTHRRQPVYHTIIPASREHLLLGGIAREAVLLQTVRQAVPTVKNVHLTPGGSCRYHAVISIEKKHEGEAKNAIFAAFTSSSEVKHVVVVDHEINIFDPEEVEWAVATRCQAGRDVFIVKDAMGNRLDPSSRDGVSDKMGIDATIPLNLPGERFERISIPGLDKIKLADYLE
Q: Which activation energy ([6]; Arrhenius plot of the 25° C.-50° C. data points) does the source give for B1 here?
A: 80.7 kJ/mol

Q: What about the “temperature maximum of enzyme activity” value ([6]; FDCA decarboxylation, anaerobic) of the same molecule?
A: ~60 °C
